Experiment in all cases: relative viability (nuclei count vs DMSO), 5 days (fraction); higher = more cells survive
Compound in test [1]: C1=CC2=NC=CN=C2C=C1/C=C/3\C(=O)NC(=O)S3 + C[C@]1(O)C[C@@H](c2nc(-c3ccc4ccc(-c5ccccc5)nc4c3)c3c(N)nccn32)C1 [Linsitinib] (partner 1 µM)
Summed up: (§1)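 Values are medians from duplicate plates. Each reflects relative viability, defined as the nuclei count of treated wells over that of vehicle wells. Lung cancer cell lines in 1536-well plates were pin-tool dosed one day after seeding with one drug alone or with a fixed anchor-drug dose plus five library-drug doses (not always all listed) in √10 steps, then fixed, stained and imaged at 4× after 5 days.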

Compound in the test “BGJ398 + Decitabine”: CCN1CCN(c2ccc(Nc3cc(N(C)C(=O)Nc4c(Cl)c(OC)cc(OC)c4Cl)ncn3)cc2)CC1 [BGJ398] + Nc1ncn([C@H]2C[C@H](O)[C@@H](CO)O2)c(=O)n1 [Decitabine] (partner 2 µM)
An outline of the steps: as §1

Compound in the test “BGJ398 + Tozasertib”: CCN1CCN(c2ccc(Nc3cc(N(C)C(=O)Nc4c(Cl)c(OC)cc(OC)c4Cl)ncn3)cc2)CC1 [BGJ398] + Cc1cc(Nc2cc(N3CCN(C)CC3)nc(Sc3ccc(NC(=O)C4CC4)cc3)n2)n[nH]1 [Tozasertib] (partner 0.1 µM)
An outline of the steps:
as §1

Compound in test [2]: C1=CC2=NC=CN=C2C=C1/C=C/3\C(=O)NC(=O)S3 + CS(=O)(=O)CCNCc1ccc(-c2ccc3ncnc(Nc4ccc(OCc5cccc(F)c5)c(Cl)c4)c3c2)o1 [Lapatinib] (partner 2 µM)
An outline of the steps:
as §1

Take UMC-11: the relative viability amounted to 1.02 in test [1] (first compound 0.02 µM); 1.12 in test [1] (first compound 0.06325 µM); 1.05 in test [1] (first compound 0.2 µM); 0.989 in test [1] (first compound 0.6325 µM); 1.11 in test [1] (first compound 2 µM); 0.504 in the test with BGJ398 + Decitabine (first compound 0.01 µM). In addition, the relative viability with BGJ398 + Decitabine (first compound 0.03162 µM) was found to be 0.571; with BGJ398 + Decitabine (first compound 0.1 µM), 0.637; with BGJ398 + Decitabine (first compound 0.3162 µM), 0.652; with BGJ398 + Decitabine (first compound 1 µM), 0.365; with BGJ398 + Tozasertib (first compound 0.01 µM), 0.2; in the test with BGJ398 + Tozasertib (first compound 0.03162 µM), 0.202. The relative viability turned out to be 0.207 with BGJ398 + Tozasertib (first compound 0.1 µM); 0.206 with BGJ398 + Tozasertib (first compound 0.3162 µM); 0.235 in the test with BGJ398 + Tozasertib (first compound 1 µM); 1.02 in test [2] (first compound 0.02 µM); 1.15 in test [2] (first compound 0.06325 µM); 1.19 in test [2] (first compound 0.2 µM). For the same cell line, the relative viability in test [2] (first compound 0.6325 µM) turned out to be 1.02; in test [2] (first compound 2 µM) it was 1.37.

Values taken from the supplement of paper PMC10307832.
